In patent US10654816B2, “Compounds and compositions for treating conditions associated with NLRP activity” (NOVARTIS INFLAMMASOME RESEARCH, INC., priority 2017, dated 2020):
pIC50: −log10 of the molar value.

Tested on: IL-1β production in PMA-differentiated THP-1 cells
Test: IL-1β production in PMA-differentiated THP-1 cells stimulated with gramicidin (hTHP-1 assay, HTRF readout; Procedures 1-3)
Format: cell-based, human
Settings: Homo sapiens, THP-1, hTHP-1 assay containing 2% fetal bovine serum; average; class symbols; read-out: hTHP-1 IC50 (Average IC50 of compounds in hTHP-1 assay)
Summary of the method: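 PMA-differentiated (20 ng/ml, 16-18 h) THP-1 cells in RPMI with 2% FBS, 50,000 cells/well, preincubated 1 h with compound (final 0.0017-100 μM, 0.37% DMSO), then stimulated with 5 μM gramicidin for 2 h. IL-1β in cell-free supernatant measured by HTRF (620/668 nm).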

| Compound | pIC50 |
| --- | --- |
| CC(C)(O)c1cnc(S(N)(=O)=NC(=O)Nc2c3c(cc4c2CCO4)CCC3)s1 (stereo not drawn) [Example 257, 5-(2-hydroxypropan-2-yl)-N′-((3,5,6,7-tetrahydro-2H-indeno[5,6-b]furan-4-yl)carbamoyl)thiazole-2-sulfonimidamide] | 6.70 to 7.40 |
| CC(C)(O)c1cc(S(N)(=O)=NC(=O)Nc2c3c(cc4c2CCC4)CCC3)nn1-c1ccccc1 (stereo not drawn) [Example 259, N′-((1,2,3,5,6,7-hexahydro-s-indacen-4-yl)carbamoyl)-5-(2-hydroxypropan-2-yl)-1-phenyl-1H-pyrazole-3-sulfonimidamide] | 6.00 to 6.70 |
| CC(C)(O)c1ccc(S(N)(=O)=NC(=O)Nc2c3c(cc4c2CCC4)CCC3)cn1 (stereo not drawn) [Example 260, N′-((1,2,3,5,6,7-hexahydro-s-indacen-4-yl)carbamoyl)-6-(2-hydroxypropan-2-yl)pyridine-3-sulfonimidamide] | 6.00 to 6.70 |
| Cc1sc(S(N)(=O)=NC(=O)Nc2c3c(cc4c2CCC4)CCC3)nc1C(C)(C)O (stereo not drawn) [Example 265, N′-(1,2,3,5,6,7-hexahydro-s-indacen-4-ylcarbamoyl)-4-(2-hydroxypropan-2-yl)-5-methylthiazole-2-sulfonimidamide] | 6.70 to 7.40 |
| CN1CCc2ccc(S(=N)(=O)NC(=O)Nc3c4c(cc5c3CCC5)CCC4)cc2C1 (stereo not drawn) [Example 271, N-(1,2,3,5,6,7-hexahydro-s-indacen-4-ylcarbamoyl)-2-methyl-1,2,3,4-tetrahydroisoquinoline-7-sulfonimidamide] | 5.30 to 6.00 |
| COc1cc(CN(C)C)ccc1S(N)(=O)=NC(=O)Nc1c2c(cc3c1CCC3)CCC2 (stereo not drawn) [Example 272, 4-((Dimethylamino)methyl)-N′-((1,2,3,5,6,7-hexahydro-s-indacen-4-yl)carbamoyl)-2-methoxybenzenesulfonimidamide] | 6.00 to 6.70 |
| CC(C)Cc1ccc(S(N)(=O)=NC(=O)Nc2c3c(cc4c2CCC4)CCC3)cn1 (stereo not drawn) [Example 275, N′-(1,2,3,5,6,7-hexahydro-s-indacen-4-ylcarbamoyl)-6-isobutylpyridine-3-sulfonimidamide] | 5.30 to 6.00 |
| CN(C)Cc1ccc(S(N)(=O)=NC(=O)Nc2c3c(cc4c2CCC4)CCC3)cn1 (stereo not drawn) [Example 276, 6-((Dimethylamino)methyl)-N′-(1,2,3,5,6,7-hexahydro-s-indacen-4-ylcarbamoyl)pyridine-3-sulfonimidamide] | 6.00 to 6.70 |
| CN(C)Cc1ccc(S(N)(=O)=NC(=O)Nc2c3c(cc4c2CCC4)CCC3)cc1F (stereo not drawn) [Example 280, 4-((dimethylamino)methyl)-3-fluoro-N′-((1,2,3,5,6,7-hexahydro-s-indacen-4-yl)carbamoyl)benzenesulfonimidamide] | 6.00 to 6.70 |
| CC(C)(O)c1cc(F)c(S(N)(=O)=NC(=O)Nc2c3c(cc4c2CC4)CCC3)s1 (stereo not drawn) [Example 281, 3-fluoro-5-(2-hydroxypropan-2-yl)-N′-((2,4,5,6-tetrahydro-1H-cyclobuta[f]inden-3-yl)carbamoyl)thiophene-2-sulfonimidamide] | 7.40 to 8.10 |
| CNCc1ccc(S(N)(=O)=NC(=O)Nc2c3c(cc4c2CCC4)CCC3)c(F)c1 (stereo not drawn) [Example 287, 2-fluoro-N′-((1,2,3,5,6,7-hexahydro-s-indacen-4-yl)carbamoyl)-4-((methylamino)methyl)benzene-sulfonimidamide] | 5.30 to 6.00 |
| CC(C)c1ccc(S(N)(=O)=NC(=O)Nc2c3c(cc4c2CCC4)CCC3)cn1 (stereo not drawn) [Example 288, N′-((1,2,3,5,6,7-hexahydro-s-indacen-4-yl)carbamoyl)-6-isopropylpyridine-3-sulfonimidamide] | 5.30 to 6.00 |
| CCc1ccc2cn[nH]c2c1NC(=O)N=S(N)(=O)c1cnc(C(C)(C)O)s1 (stereo not drawn) [Example 290, N′-((6-ethyl-1H-indazol-7-yl)carbamoyl)-2-(2-hydroxypropan-2-yl)thiazole-5-sulfonimidamide] | 5.30 to 6.00 |
| Cc1ccc(-c2ccc(NC(=O)N=S(N)(=O)c3ncc(C(C)(C)O)s3)c3c2CCC3)cc1C (stereo not drawn) [Example 426, 1-{Amino[5-(2-hydroxypropan-2-yl)-1,3-thiazol-2-yl]oxo-λ^6-sulfanylidene}-3-[7-(3,4-dimethylphenyl)-2,3-dihydro-1H-inden-4-yl]urea] | 4.52 to 5.30 |
| Cc1nc(C)c(S(N)(=O)=NC(=O)Nc2c(C(C)C)cc(F)cc2C(C)C)s1 (stereo not drawn) [Example 428, 3-[amino(dimethyl-1,3-thiazol-5-yl)oxo-λ^6-sulfanylidene]-1-[4-fluoro-2,6-bis(propan-2-yl)phenyl]urea] | 4.52 to 5.30 |
| CC(C)c1cc(F)cc(C(C)C)c1NC(=O)N=S(N)(=O)c1cnc2c(cnn2C)c1 (stereo not drawn) [Example 430, 3-[amino({1-methyl-1H-pyrazolo[3,4-b]pyridin-5-yl})oxo-λ^6-sulfanylidene]-1-[4-fluoro-2,6-bis(propan-2-yl)phenyl]urea] | 4.52 to 5.30 |
| CC(C)c1cc(F)cc(C(C)C)c1NC(=O)N=S(N)(=O)c1cccc2c(N(C)C)cccc12 (stereo not drawn) [Example 431, 1-{amino[5-(dimethylamino)naphthalen-1-yl]oxo-λ^6-sulfanylidene}-3-[4-fluoro-2,6-bis(propan-2-yl)phenyl]urea] | 4.52 to 5.30 |

More lines, now with the values ahead:

| pIC50 | Compound |
| --- | --- |
| 4.52 to 5.30 | CCc1ccc2cnn(C)c2c1NC(=O)N=S(N)(=O)c1ncc(C(C)(C)O)s1 (stereo not drawn) [Example 255, N′-((6-ethyl-1-methyl-1H-indazol-7-yl)carbamoyl)-5-(2-hydroxypropan-2-yl)thiazole-2-sulfonimidamide] |
| 5.30 to 6.00 | C#CCCC(=O)N(C)Cc1ccc(S(N)(=O)=NC(=O)Nc2c3c(cc4c2CCC4)CCC3)cc1 (stereo not drawn) [Example 261, N-(4-(N′-((1,2,3,5,6,7-hexahydro-s-indacen-4-yl)carbamoyl)sulfamidimidoyl)benzyl)-N-methylpent-4-ynamide] |
| 7.40 to 8.10 | CC(C)(O)c1csc(S(N)(=O)=NC(=O)Nc2c3c(cc4c2CC4)CCC3)n1 (stereo not drawn) [Example 262, 4-(2-Hydroxypropan-2-yl)-N′-((2,4,5,6-tetrahydro-1H-cyclobuta[f]inden-3-yl)carbamoyl)thiazole-2-sulfonimidamide] |
| 5.30 to 6.00 | Cc1nc(C(C)(C)O)ccc1S(N)(=O)=NC(=O)Nc1c2c(cc3c1CCC3)CCC2 (stereo not drawn) [Example 264, N′-((1,2,3,5,6,7-hexahydro-s-indacen-4-yl)carbamoyl)-6-(2-hydroxypropan-2-yl)-2-methylpyridine-3-sulfonimidamide] |
| 5.30 to 6.00 | CC(=O)N(C)Cc1ccc(S(N)(=O)=NC(=O)Nc2c3c(cc4c2CCC4)CCC3)cc1 (stereo not drawn) [Example 268, N-(4-(N′-(1,2,3,5,6,7-hexahydro-s-indacen-4-ylcarbamoyl)sulfamimidoyl)benzyl)-N-methylacetamide] |
| 5.30 to 6.00 | CN1CCc2cc(S(N)(=O)=NC(=O)Nc3c4c(cc5c3CCC5)CCC4)ccc2C1 (stereo not drawn) [Example 270, N′-((1,2,3,5,6,7-hexahydro-s-indacen-4-yl)carbamoyl)-2-methyl-1,2,3,4-tetrahydroisoquinoline-6-sulfonimidamide] |
| 4.52 to 5.30 | Cn1ncc2cc(S(N)(=O)=NC(=O)Nc3c4c(cc5c3CCC5)CCC4)ccc21 (stereo not drawn) [Example 273, N′-(1,2,3,5,6,7-hexahydro-s-indacen-4-ylcarbamoyl)-1-methyl-1H-indazole-5-sulfonimidamide] |
| 4.52 to 5.30 | CC(C)c1nn(-c2ccccc2)c(C(C)C)c1NC(=O)N=S(N)(=O)c1cc(C(C)(C)O)cs1 (stereo not drawn) [Example 284, N′-((3,5-diisopropyl-1-phenyl-1H-pyrazol-4-yl)carbamoyl)-4-(2-hydroxypropan-2-yl)thiophene-2-sulfonimidamide] |
| 4.52 to 5.30 | Cc1ccc(-c2c3c(c(NC(=O)N=S(N)(=O)c4ncc(C(C)(C)O)s4)c4c2CCC4)CCC3)cc1C (stereo not drawn) [Example 427, 1-{Amino[5-(2-hydroxypropan-2-yl)-1,3-thiazol-2-yl]oxo-λ^6-sulfanylidene}-3-[8-(3,4-dimethylphenyl)-1,2,3,5,6,7-hexahydro-s-indacen-4-yl]urea] |

Same assay, conditions: Homo sapiens, THP-1, hTHP-1 assay containing 2% fetal bovine serum; average; given as bound; read-out: hTHP-1 IC50 (Average IC50 of compounds in hTHP-1 assay)

| pIC50 | Compound |
| --- | --- |
| < 4.52 | CCc1ccc2cn(C)nc2c1NC(=O)N=S(N)(=O)c1ncc(C(C)(C)O)s1 (stereo not drawn) [Example 256, N′-((6-ethyl-2-methyl-2H-indazol-7-yl)carbamoyl)-5-(2-hydroxypropan-2-yl)thiazole-2-sulfonimidamide] |
| < 4.52 | CC(C)Cc1ccc(S(N)(=O)=NC(=O)Nc2c3c(cc4c2CCC4)CCC3)cc1 (stereo not drawn) [Example 277, N′-(1,2,3,5,6,7-hexahydro-s-indacen-4-ylcarbamoyl)-4-isobutylbenzenesulfonimidamide] |
| < 4.52 | Cc1cc(NC(=O)N=S(N)(=O)c2ccc(C(C)(C)O)s2)cc(C)n1 (stereo not drawn) [compound 78, N-((2,6-dimethylpyridin-4-yl)carbamoyl)-5-(2-hydroxypropan-2-yl)thiophene-2-sulfonimidamide] |
